Legend:
Experiment in all cases: relative viability (nuclei count vs DMSO), 5 days (fraction); higher = more cells survive
AZD8055 + Navitoclax = compound: COc1ccc(-c2ccc3c(N4CCOC[C@@H]4C)nc(N4CCOC[C@@H]4C)nc3n2)cc1CO [AZD8055] + CC1(C)CCC(c2ccc(Cl)cc2)=C(CN2CCN(c3ccc(C(=O)NS(=O)(=O)c4ccc(N[C@H](CCN5CCOCC5)CSc5ccccc5)c(S(=O)(=O)C(F)(F)F)c4)cc3)CC2)C1 [Navitoclax] (partner 0.5 µM)
Method in brief: (§1)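 Medians of duplicate plates are given as relative viability. That measure is the nuclei count in treated wells divided by the count in vehicle wells. Counts were taken on 4× images of lung cancer cell lines in 1536-well plates, 5 days after pin-tool dosing the day after seeding with one drug alone or a fixed anchor-drug dose plus five library-drug doses (not always all listed) in √10 steps.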

AZD8055 + Crizotinib = compound: COc1ccc(-c2ccc3c(N4CCOC[C@@H]4C)nc(N4CCOC[C@@H]4C)nc3n2)cc1CO [AZD8055] + C[C@@H](Oc1cc(-c2cnn(C3CCNCC3)c2)cnc1N)c1c(Cl)ccc(F)c1Cl [Crizotinib] (partner 1 µM)
Method in brief: as §1

AZD8055 + Dasatinib = compound: COc1ccc(-c2ccc3c(N4CCOC[C@@H]4C)nc(N4CCOC[C@@H]4C)nc3n2)cc1CO [AZD8055] + Cc1nc(Nc2ncc(C(=O)Nc3c(C)cccc3Cl)s2)cc(N2CCN(CCO)CC2)n1 [Dasatinib] (partner 0.075 µM)
Method in brief: as §1

AZD8055 + Vorinostat = compound: COc1ccc(-c2ccc3c(N4CCOC[C@@H]4C)nc(N4CCOC[C@@H]4C)nc3n2)cc1CO [AZD8055] + O=C(CCCCCCC(=O)Nc1ccccc1)NO [Vorinostat] (partner 1 µM)
Method in brief: as §1

Row | Cell Line | relative viability (AZD8055 + Navitoclax; first compound 0.01 µM) | relative viability (AZD8055 + Navitoclax; first compound 0.03162 µM) | relative viability (AZD8055 + Navitoclax; first compound 0.1 µM) | relative viability (AZD8055 + Navitoclax; first compound 0.3162 µM) | relative viability (AZD8055 + Navitoclax; first compound 1 µM) | relative viability (AZD8055 + Crizotinib; first compound 0.01 µM) | relative viability (AZD8055 + Crizotinib; first compound 0.03162 µM) | relative viability (AZD8055 + Crizotinib; first compound 0.1 µM) | relative viability (AZD8055 + Crizotinib; first compound 0.3162 µM) | relative viability (AZD8055 + Crizotinib; first compound 1 µM) | relative viability (AZD8055 + Dasatinib; first compound 0.01 µM) | relative viability (AZD8055 + Dasatinib; first compound 0.03162 µM) | relative viability (AZD8055 + Dasatinib; first compound 0.1 µM) | relative viability (AZD8055 + Dasatinib; first compound 0.3162 µM) | relative viability (AZD8055 + Dasatinib; first compound 1 µM) | relative viability (AZD8055 + Vorinostat; first compound 0.01 µM) | relative viability (AZD8055 + Vorinostat; first compound 0.03162 µM) | relative viability (AZD8055 + Vorinostat; first compound 0.1 µM) | relative viability (AZD8055 + Vorinostat; first compound 0.3162 µM) | relative viability (AZD8055 + Vorinostat; first compound 1 µM)
1 | SK-MES-1 | 1.05 | 1.25 | 0.818 | 0.404 | 0.342 | 0.94 | 0.944 | 0.781 | 0.494 | 0.318 | 0.404 | 0.337 | 0.256 | 0.213 | 0.179 | 1.06 | 0.958 | 0.962 | 0.427 | 0.314
2 | NCI-H1666 | 0.878 | 0.819 | 0.731 | 0.561 | 0.417 | 0.936 | 1.01 | 0.812 | 0.648 | 0.465 | 0.928 | 0.853 | 0.739 | 0.698 | 0.579 | 0.933 | 1.07 | 0.892 | 0.856 | 0.736
3 | NCI-H1355 | 0.959 | 0.736 | 0.382 | 0.21 | 0.21 | 1.12 | 0.851 | 0.587 | 0.231 | 0.231 | 0.551 | 0.443 | 0.435 | 0.218 | 0.263 | 0.587 | 0.541 | 0.414 | 0.214 | 0.235
4 | HCC-827 | 1.03 | 0.991 | 1.03 | 0.92 | 0.456 | 1 | 0.965 | 0.991 | 0.479 | 0.393 | 0.334 | 0.273 | 0.258 | 0.241 | 0.167 | 0.849 | 0.882 | 0.89 | 0.521 | 0.397
5 | HARA | 1.16 | 1.13 | 0.935 | 0.738 | 0.393 | 1.09 | 1.14 | 0.855 | 0.573 | 0.33 | 0.282 | 0.294 | 0.221 | 0.155 | 0.221 | 0.574 | 0.527 | 0.441 | 0.24 | 0.227
6 | HCC-366 | 1.15 | 0.911 | 0.694 | 0.418 | 0.132 | 0.416 | 0.484 | 0.223 | 0.107 | 0.0921 | 0.719 | 0.401 | 0.241 | 0.0939 | 0.0948 | 0.372 | 0.205 | 0.182 | 0.0725 | 0.0602
7 | NCI-H322M | 1.17 | 1.09 | 0.845 | 0.488 | 0.546 | 0.868 | 1.03 | 0.825 | 0.796 | 0.478 | 0.259 | 0.265 | 0.251 | 0.246 | 0.249 | 0.85 | 0.839 | 0.8 | 0.511 | 0.538
8 | NCI-H2347 | 0.859 | 0.595 | 0.453 | 0.339 | 0.24 | 0.601 | 0.509 | 0.402 | 0.332 | 0.531 | 0.307 | 0.29 | 0.252 | 0.235 | 0.213 | 0.424 | 0.66 | 0.406 | 0.304 | 0.352
9 | NCI-H1975 | 0.967 | 0.91 | 0.802 | 0.279 | 0.247 | 0.943 | 0.959 | 0.515 | 0.386 | 0.254 | 0.34 | 0.265 | 0.129 | 0.132 | 0.135 | 0.749 | 0.623 | 0.448 | 0.282 | 0.263
10 | UMC-11 | 0.295 | 0.277 | 0.248 | 0.173 | 0.134 | 0.543 | 0.535 | 0.321 | 0.29 | 0.189 | 0.521 | 0.381 | 0.302 | 0.252 | 0.224 | 0.453 | 0.282 | 0.258 | 0.233 | 0.21
11 | A-427 | 0.987 | 0.837 | 0.598 | 0.376 | 0.315 | 1.03 | 0.849 | 0.786 | 0.438 | 0.403 | 0.666 | 0.632 | 0.572 | 0.281 | 0.339 | 0.928 | 0.868 | 0.849 | 0.6 | 0.535
12 | LCLC-97TM1 | 0.45 | 0.225 | 0.214 | 0.13 | 0.144 | 0.365 | 0.352 | 0.154 | 0.158 | 0.193 | 0.873 | 0.748 | 0.761 | 0.393 | 0.445 | 0.751 | 0.585 | 0.414 | 0.354 | 0.308
13 | HCC-15 | 0.782 | 0.591 | 0.561 | 0.38 | 0.293 | 0.816 | 0.788 | 0.746 | 0.529 | 0.334 | 0.615 | 0.541 | 0.477 | 0.273 | 0.174 | 0.833 | 0.844 | 0.762 | 0.468 | 0.333
14 | NCI-H647 | 1.35 | 1.03 | 0.637 | 0.391 | 0.219 | 1 | 0.619 | 0.445 | 0.303 | 0.177 | 0.179 | 0.136 | 0.132 | 0.0579 | 0.144 | 0.81 | 0.416 | 0.308 | 0.152 | 0.114
15 | SW 1573 | 0.869 | 0.855 | 0.646 | 0.304 | 0.21 | 0.777 | 0.812 | 0.449 | 0.317 | 0.21 | 0.583 | 0.534 | 0.262 | 0.114 | 0.103 | 0.791 | 0.452 | 0.773 | 0.21 | 0.199
16 | NCI-H1651 | 1.08 | 0.879 | 0.622 | 0.52 | 0.282 | 0.896 | 0.738 | 0.786 | 0.633 | 0.529 | 0.455 | 0.368 | 0.307 | 0.226 | 0.253 | 0.59 | 0.526 | 0.552 | 0.411 | 0.351
